What was measured:
Type in all cases: in vivo
Conditions in all cases: 250 g/ha, evaluated after 13 days
ABUTH [1] = assay: Pre-emergence Test, glasshouse, ABUTH
In short: (§1)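 Pots were sprayed 1 day after sowing (pre-emergence) or after 8 days' growth (post-emergence) at 250 g/ha, formulated in acetone/water 50:50 with 0.5% Tween 20. Glasshouse conditions were 24/16 °C, 14 h light, 65% humidity. Damage was scored after 13 days on a 1–5 scale (5 = 81–100%).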

[2] = tested on: Amaranthus retoflexus (AMARE); assay: Pre-emergence Test, glasshouse, AMARE
In short: as §1

[3] = tested on: Amaranthus retoflexus (AMARE); assay: Post-emergence Test, glasshouse, AMARE
In short: as §1

[4] = tested on: Echinochloa crus-galli (ECHCG); assay: Pre-emergence Test, glasshouse, ECHCG
In short: as §1

Setaria faberi (SETFA) [5] = assay: Post-emergence Test, glasshouse, SETFA
In short: as §1

[6] = tested on: Echinochloa crus-galli (ECHCG); assay: Post-emergence Test, glasshouse, ECHCG
In short: as §1

ABUTH [7] = assay: Post-emergence Test, glasshouse, ABUTH
In short: as §1

IPOHE [8] = assay: Pre-emergence Test, glasshouse, IPOHE
In short: as §1

IPOHE [9] = assay: Post-emergence Test, glasshouse, IPOHE
In short: as §1

Setaria faberi (SETFA) [10] = assay: Pre-emergence Test, glasshouse, SETFA
In short: as §1

Compound	percentage damage caused to the plant, five-point scale, ABUTH (ABUTH [1])	percentage damage caused to the plant, five-point scale, AMARE [2]	percentage damage caused to the plant, five-point scale, AMARE [3]	percentage damage caused to the plant, five-point scale, ECHCG [4]	percentage damage caused to the plant, five-point scale, SETFA (Setaria faberi (SETFA) [5])	percentage damage caused to the plant, five-point scale, ECHCG [6]	percentage damage caused to the plant, five-point scale, ABUTH (ABUTH [7])	percentage damage caused to the plant, five-point scale, IPOHE (IPOHE [8])	percentage damage caused to the plant, five-point scale, IPOHE (IPOHE [9])	percentage damage caused to the plant, five-point scale, SETFA (Setaria faberi (SETFA) [10])
C=CCn1nc(Cl)c2cccc(Oc3ncc(Cl)cn3)c21 [Compound 1.065]	2 (2=21-40%)	2 (2=21-40%)	4 (4=61-80%)	3 (3=41-60%)	2 (2=21-40%)	2 (2=21-40%)	2 (2=21-40%)	1 (1=0-20%)	2 (2=21-40%)	4 (4=61-80%)
FC(F)(F)CCCn1nc(Cl)c2cc(Br)cc(Oc3ncc(Cl)cn3)c21 [Compound 1.010, 5-bromo-3-chloro-7-(5-chloropyrimidin-2-yl)oxy-1-(4,4,4-trifluorobutyl)indazole]	1 (1=0-20%)	4 (4=61-80%)	4 (4=61-80%)	2 (2=21-40%)	2 (2=21-40%)	2 (2=21-40%)	1 (1=0-20%)	1 (1=0-20%)	1 (1=0-20%)	2 (2=21-40%)
C=C(C)Cn1nc(Cl)c2cccc(Oc3ncc(Cl)cn3)c21 [Compound 1.064]	1 (1=0-20%)	1 (1=0-20%)	2 (2=21-40%)	1 (1=0-20%)	1 (1=0-20%)	1 (1=0-20%)	2 (2=21-40%)	1 (1=0-20%)	1 (1=0-20%)	1 (1=0-20%)
Cl/C=C/Cn1nc(Cl)c2cccc(Oc3ncc(Cl)cn3)c21 [Compound 1.069]	2 (2=21-40%)	3 (3=41-60%)	5 (5=81-100%)	3 (3=41-60%)	2 (2=21-40%)	3 (3=41-60%)	4 (4=61-80%)	1 (1=0-20%)	2 (2=21-40%)	5 (5=81-100%)
FC(F)(F)CCCn1nc(Br)c2cc(Br)cc(Oc3ncc(Cl)cn3)c21 [Compound 1.016]	1 (1=0-20%)	1 (1=0-20%)	4 (4=61-80%)	1 (1=0-20%)	1 (1=0-20%)	1 (1=0-20%)	2 (2=21-40%)	1 (1=0-20%)	1 (1=0-20%)	1 (1=0-20%)
FC(F)(F)CCCn1ncc2cc(Br)cc(Oc3ncc(Cl)cn3)c21 [Compound 1.011, 5-bromo-7-(5-chloropyrimidin-2-yl)oxy-1-(4,4,4-trifluorobutyl)indazole]	1 (1=0-20%)	1 (1=0-20%)	3 (3=41-60%)	1 (1=0-20%)	1 (1=0-20%)	1 (1=0-20%)	1 (1=0-20%)	1 (1=0-20%)	1 (1=0-20%)	1 (1=0-20%)
FC(F)(F)CCCn1nnc2c(Cl)ccc(Oc3ncc(Cl)cn3)c21 [Compound 1.072]	1 (1=0-20%)	4 (4=61-80%)	4 (4=61-80%)	2 (2=21-40%)	3 (3=41-60%)	3 (3=41-60%)	1 (1=0-20%)	1 (1=0-20%)	3 (3=41-60%)	4 (4=61-80%)
FC(F)Cn1nc(Cl)c2cccc(Oc3ncc(Cl)cn3)c21 [Compound 1.063]	2 (2=21-40%)	3 (3=41-60%)	4 (4=61-80%)	2 (2=21-40%)	2 (2=21-40%)	2 (2=21-40%)	3 (3=41-60%)	1 (1=0-20%)	2 (2=21-40%)	2 (2=21-40%)
FC(F)(F)CCCn1nc(Br)c2c(Br)ccc(Oc3ncc(Cl)cn3)c21 [Compound 1.015]	1 (1=0-20%)	2 (2=21-40%)	4 (4=61-80%)	1 (1=0-20%)	2 (2=21-40%)	2 (2=21-40%)	4 (4=61-80%)	1 (1=0-20%)	1 (1=0-20%)	1 (1=0-20%)
C#CCn1nc(Cl)c2cccc(Oc3ncc(Cl)cn3)c21 [Compound 1.059]	2 (2=21-40%)	2 (2=21-40%)	4 (4=61-80%)	2 (2=21-40%)	1 (1=0-20%)	1 (1=0-20%)	2 (2=21-40%)	1 (1=0-20%)	1 (1=0-20%)	2 (2=21-40%)
